Patent EP1363899B1, “QUINAZOLONE DERIVATIVES AS ALPHA 1A/B ADRENERGIC RECEPTOR ANTAGONISTS” (F.HOFFMANN-LA ROCHE AG, priority 2001, dated 2002)

Assays:
alpha-1D adrenoceptor = molecular target: T1, alpha-1D adrenoceptor (Homo sapiens, UniProt P25100); assay: [3H]prazosin binding (alpha1-adrenoceptor) assay, alpha-1D; conditions: membranes of transfected CHO-KI cells, read-out: affinity towards the alpha-1D adrenoceptor (pKi) (converted)
T1 construct: expressed in transfected cells; host or cells: CHO-K1
T1 sequence (P25100 1-572): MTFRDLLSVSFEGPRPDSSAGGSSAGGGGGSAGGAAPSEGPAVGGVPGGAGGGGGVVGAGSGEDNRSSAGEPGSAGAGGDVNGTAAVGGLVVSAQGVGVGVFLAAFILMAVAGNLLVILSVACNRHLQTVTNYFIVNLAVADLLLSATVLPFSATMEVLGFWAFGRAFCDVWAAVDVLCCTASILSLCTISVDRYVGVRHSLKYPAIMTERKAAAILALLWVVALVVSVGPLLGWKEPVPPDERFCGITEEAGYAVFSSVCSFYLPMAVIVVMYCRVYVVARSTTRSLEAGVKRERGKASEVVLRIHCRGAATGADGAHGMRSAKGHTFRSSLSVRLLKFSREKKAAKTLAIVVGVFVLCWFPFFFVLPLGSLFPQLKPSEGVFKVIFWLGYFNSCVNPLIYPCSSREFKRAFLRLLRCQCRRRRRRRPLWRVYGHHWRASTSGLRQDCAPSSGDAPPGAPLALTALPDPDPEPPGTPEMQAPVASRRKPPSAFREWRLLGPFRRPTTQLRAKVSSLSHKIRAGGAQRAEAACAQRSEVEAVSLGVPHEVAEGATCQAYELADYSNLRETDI
Experimental: (§1) Alpha1A, alpha1B, and alpha1D adrenoceptor transfected CHO-KI cells, prepared using the methods described by Chang et al., FEBS Lett. 1998, 422:279-283, were grown to confluence in T-162 tissue culture flasks in Ham's F-12 culture medium supplemented with 10% fetal bovine serum, geneticin (150 µg/mL) and streptomycin/penicillin (30 µg/mL/30 µg/mL) at 37 °C in 7% CO2. Cells were harvested by incubating with phosphate-buffered saline (PBS) containing 30 µM EDTA for 5-10 min at 37 °C. Cells were pelleted by centrifuging at 500 x g for 5 min, and the pelleted cells were homogenized (Polytron homogenizer) in 10 vols (w/v) of 50 mM Tris, 1 mM EDTA, (homogenisation buffer, pH 7.4 at 4 °C). The homogenate was centrifuged at 45,000 x g for 20 min. The pellet was resuspended in the homogenizing buffer and rehomogenized. The resulting homogenate was centrifuged at 45,000 x g for 20 min. The pellet was resuspended in 50 mM Tris buffer (pH 7.4 at 4 °C), aliquoted, frozen, and stored at -80 °C for further use.
(§2) The membranes were thawed at room temperature and diluted in assay buffer (50 mM Tris buffer at […]) at 37 °C and homogenized using the Polytron tissue disrupter. The membranes were incubated with the radioligand ([^3H]prazosin, NEN, 0.1 - 0.5 nM) and test compound at 37 °C for 30 min. The membranes were then filtered over polyethyleneimine-treated GF/B unifilter plates using a Packard Filtermate Harvester and washed with ice-cold 50 mM Tris-HCl, 1 mM EDTA buffer (3 x 3 sec. washes). Scintillation cocktail was added to the filter plates and bound radioligand determined by liquid scintillation spectrophotometry.
(§3) For each experiment, total binding (in the absence of any test or reference compounds) and non-specific binding (10 µM phentolamine) were determined. For each sample tested, the concentration producing 50% inhibition of binding (IC50) and Hill Slope (nH) was determined using iterative non-linear curve fitting techniques with Kaleidagraph (Synergy Software) or other appropriate software. If the radioligand KD was known, the inhibition dissociation constant (K1) of each ligand was determined according to the method of Cheng and Prusoff (Cheng, Y-C. and Prusoff, W.H., Biochem. Pharmacol., 1973, 22, 3099-3108).

alpha-1A adrenoceptor = molecular target: T2, alpha-1A adrenoceptor (Homo sapiens, UniProt P35348); assay: [3H]prazosin binding (alpha1-adrenoceptor) assay, alpha-1A; conditions: membranes of transfected CHO-KI cells, read-out: affinity towards the alpha-1A adrenoceptor (pKi) (converted)
T2 construct: expressed in transfected cells; host or cells: CHO-K1
T2 sequence (P35348 1-466): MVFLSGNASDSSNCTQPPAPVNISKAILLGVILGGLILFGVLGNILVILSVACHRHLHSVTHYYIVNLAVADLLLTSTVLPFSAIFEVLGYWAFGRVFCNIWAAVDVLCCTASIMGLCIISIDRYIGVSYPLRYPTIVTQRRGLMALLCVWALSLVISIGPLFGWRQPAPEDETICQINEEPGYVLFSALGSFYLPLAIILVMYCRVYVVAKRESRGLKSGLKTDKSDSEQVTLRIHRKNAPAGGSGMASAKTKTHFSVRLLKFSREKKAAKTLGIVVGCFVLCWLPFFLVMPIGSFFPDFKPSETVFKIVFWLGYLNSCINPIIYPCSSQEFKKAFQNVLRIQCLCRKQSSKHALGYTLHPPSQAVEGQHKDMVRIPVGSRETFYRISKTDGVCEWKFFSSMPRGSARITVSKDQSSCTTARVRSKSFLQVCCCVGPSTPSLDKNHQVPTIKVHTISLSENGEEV
Experimental: as §1, §2, §3

alpha-1B adrenoceptor = molecular target: T3, alpha-1B adrenoceptor (Homo sapiens, UniProt P35368); assay: [3H]prazosin binding (alpha1-adrenoceptor) assay, alpha-1B; conditions: membranes of transfected CHO-KI cells, read-out: affinity towards the alpha-1B adrenoceptor (pKi) (converted)
T3 construct: expressed in transfected cells; host or cells: CHO-K1
T3 sequence (P35368 1-520): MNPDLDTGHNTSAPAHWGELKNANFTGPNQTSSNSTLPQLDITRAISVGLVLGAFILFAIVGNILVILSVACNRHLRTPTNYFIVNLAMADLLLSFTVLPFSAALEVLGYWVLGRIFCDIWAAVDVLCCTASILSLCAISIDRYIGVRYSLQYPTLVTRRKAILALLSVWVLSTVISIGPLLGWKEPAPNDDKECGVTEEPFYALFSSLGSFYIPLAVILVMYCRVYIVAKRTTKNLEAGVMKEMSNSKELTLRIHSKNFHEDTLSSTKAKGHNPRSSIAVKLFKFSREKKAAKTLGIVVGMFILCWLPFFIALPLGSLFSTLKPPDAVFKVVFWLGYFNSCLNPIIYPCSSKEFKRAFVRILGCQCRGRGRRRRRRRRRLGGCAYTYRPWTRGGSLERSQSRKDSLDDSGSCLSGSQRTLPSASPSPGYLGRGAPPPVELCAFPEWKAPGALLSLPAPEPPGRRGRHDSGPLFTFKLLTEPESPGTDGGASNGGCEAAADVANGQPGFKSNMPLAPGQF
Experimental: as §1, §2, §3

| Compound | Ki (alpha-1D adrenoceptor) [nM] | Ki (alpha-1A adrenoceptor) [nM] | Ki (alpha-1B adrenoceptor) [nM] |
| --- | --- | --- | --- |
| COc1cc2nc(N3CCc4c(ncnc4Nc4cccc(C)n4)C3)[nH]c(=O)c2cc1OC [Compound 208, 6,7-dimethoxy-2-[4-(6-methyl-pyridin-2-ylamino)-5,8-dihydro-6H-pyrido[3,4-d]pyrimidin-7-yl]-3H-quinazolin-4-one] | 182 | 3.8 | 13.2 |
| COc1cc2[nH]c(N3CCc4ccncc4C3)nc(=O)c2cc1OC [Compound 147, 2-(3,4-dihydro-1H-[2,7]naphthyridin-2-yl)-6,7-dimethoxy-1H-quinazolin-4-one] | 468 | 5.5 | 41.7 |
| COc1cc2nc(N3CCc4c(cccc4N=CN(C)C)C3)[nH]c(=O)c2cc1OC [Compound 801, N-[2-(6,7-dimethoxy-4-oxo-3,4-dihydro-quinazolin-2-yl)-1,2,3,4-tetrahydro-isoquinolin-5-yl]-N,N-dimethyl-formamidine] | 372 | 2.75 | 4.47 |
| COc1cc2nc(N3CCc4c(cccc4-c4cnccc4N)C3)[nH]c(=O)c2cc1OC [Compound 902, 2-[5-(4-amino-pyridin-3-yl)-3,4-dihydro-1H-isoquinolin-2-yl)-6,7-dimethoxy-3H-quinazolin-4-one] | 692 | 25.1 | 56.2 |
| COc1cc2nc(N3CCc4c(cccc4NC4=NCCC4)C3)[nH]c(=O)c2cc1OC [Compound 810, 2-[5-(4,5-dihydro-3H-pyrrol-2-ylamino)-3,4-dihydro-1H-isoquinolin-2-yl]-6,7-dimethoxy-3H-quinazolin-4-one] | 398 | 9.55 | 6.61 |
| COc1cc2[nH]c(N3CCn4c(cnc4N4CCOCC4)C3)nc(=O)c2cc1OC [Compound 307, 6,7-dimethoxy-2-(3-morpholin-4-yl-5,6-dihydro-8H-imidazo[1,5-α]pyrazin-7-yl)-1H-quinazolin-4-one] | 123 | 7.76 | 17.4 |
| COc1cc2[nH]c(N3CCc4c(cccc4N4CCOCC4)C3)nc(=O)c2cc1OC [Compound 131, 6,7-dimethoxy-2-(5-morpholin-4-yl-3,4-dihydro-1H-isoquinolin-2-yl)-1H-quinazolin-4-one] | 955 | 89.1 | 39.8 |
| COc1cc2nc(N3CCc4c([nH]c5ccccc45)C3)[nH]c(=O)c2cc1OC [Compound 143, 6,7-dimethoxy-2-(1,3,4,9-tetrahydro-β-carbolin-2-yl)-3H-quinazolin-4-one] | 20.9 | 0.479 | 1.1 |
| COc1cc2nc(N3CCc4c(ncnc4N4CCN(C)CC4)C3)[nH]c(=O)c2cc1OC [Compound 203, 6,7-dimethoxy-2-[4-(4-methyl-piperazin-1-yl)-5,8-dihydro-6H-pyrido[3,4-d]pyrimidin-7-yl]-3H-quinazolin-4-one] | 575 | 4.47 | 8.71 |
| COc1cc2c(cc1OC)CN(c1nc(=O)c3cc(OC)c(OC)cc3[nH]1)CC2 [Compound 105, 2-(6,7-dimethoxy-3,4-dihydro-1H-isoquinolin-2-yl)-6,7-dimethoxy-1H-quinazolin-4-one] | 47.9 | 0.955 | 0.759 |
| COc1cc2nc(N3CCc4ccc(S(=O)(=O)N5CCOCC5)cc4C3)[nH]c(=O)c2cc1OC [Compound 404, 6,7-dimethoxy-2-[7-(morpholine-4-sulfonyl)-3,4-dihydro-1H-isoquinolin-2-yl]-3H-quinazolin-4-one] | 275 | 8.13 | 63.1 |
| CCCCc1ncc2n1CCN(c1nc(=O)c3cc(OC)c(OC)cc3[nH]1)C2 [Compound 306, 2-(3-butyl-5,6-dihydro-8H-imidazo[1,5-α]pyrazin-7-yl)-6,7-dimethoxy-1H-quinazolin-4-one] | 19.5 | 1.12 | 3.09 |
| COc1ccc(-n2cnc3c2CCN(c2nc4cc(OC)c(OC)cc4c(=O)[nH]2)C3)cc1 [Compound 608, 6,7-dimethoxy-2-[1-(4-methoxy-phenyl)-1,4,6,7-tetrahydro-imidazo[4,5-c]pyridin-5-yl]-3H-quinazolin-4-one] | 83.2 | 2.75 | 5.89 |
| COc1ccc(-c2cccc3c2CCN(c2nc4cc(OC)c(OC)cc4c(=O)[nH]2)C3)cc1 [Compound 106, 6,7-dimethoxy-2-[5-(4-methoxy-phenyl)-3,4-dihydro-1H-isoquinolin-2-yl]-3H-quinazolin-4-one] | 10000 | 3.8 | 0.741 |
| COc1cc2nc(N3CCc4nc5ccncc5cc4C3)[nH]c(=O)c2cc1OC [Compound 146, 2-(3,4-dihydro-1H-2,7,10-triaza-anthracen-2-yl)-6,7-dimethoxy-3H-quinazolin-4-one] | 91.2 | 3.47 | 5.25 |
